Reference: patent US20060078921A1, “Biomarkers and expression profiles for toxicology” (priority 2002, published 2006)

How the values were obtained:
[1] = Classification of liver expression profiles with support vector machines; design: species or system Wistar rats; details: compounds not present in the initial training set, individual animals, 5 SVMs
Experimental: Adult male Wistar rats were dosed in vivo and the resulting expression profile in liver was determined. SVMs were built for the discrimination between 3 different classes of hepatotoxicants, non-toxic substances and controls. The training set consisted of 180 gene expression profiles from individual animals treated with direct acting, cholestatic, steatotic, non-toxic compounds and corresponding vehicle-dosed controls. As a first step the chips were rescaled to a median value of 0 and a standard deviation of 1. Subsequently chips were presented to a linear kernel SVM (for classifier training the SVM software package from William Stafford Noble, Department of Computer Science, Columbia University, New York was used. Procedures for the Recursive Feature Elimination (RFE), automation of the whole training cycles and further data analysis were developed in house, using the PERL language.) Single binary classifiers for each category of chips were obtained by training one group against all others (‘One-vs-All’ training method). Multi-class classification for a given test chip was then carried out by combining the outputs of all binary classifiers. A leave-one-out cross validation procedure was applied to assess the quality of the trained machines with respect to the training data. […]

liver = details: man, cited from earlier work
GADD-45 = assay: RT-PCR of GADD-family genes in liver, GADD-45; design: species or system Wistar rats; details: rat liver, in vivo
Text: (§1) The induction of these genes correlates with the histopathological findings in a time related fashion: While PEG-3 seems to be an early marker, GADD-45 and GADD-143 appear regulated at later time points, when the tissue damage is obvious by conventional endpoints.

PEG-3 = assay: RT-PCR of GADD-family genes in liver, PEG-3; design: species or system Wistar rats; details: rat liver, in vivo
Text: as §1

GADD-153 = assay: RT-PCR of GADD-family genes in liver, GADD-153; design: species or system Wistar rats; details: rat liver, in vivo
Text: as §1

EGR1 = assay: EGR-1 induction in rats (RT-PCR); assay type: in vivo; details: confirmed by RT-PCR
Experimental: Tolcapone (Tasmar) is a human hepatotoxin with no known toxicity in the rat.
§: The compounds were administered to the experimental animals three times, every 12 Hours. Animals were sacrificed 3 hours after the last administration. Shaded cells represent significant induction (threshold usually 2-fold induction).

[2] = tested on: candidate marker genes (Table 4); assay: RT-PCR of candidate marker genes to differentiate toxic and non-toxic 5-HT6 receptor antagonists (FIG. 10); assay type: in vivo, Wistar rats; details: rat liver, some of the selected genes
Experimental: The regulation of the mRNA levels of several candidate genes (Table 4) was verified with quantitative RT-PCR. Specific primers for these genes have been designed in order to evaluate the expression with RT-PCR using SybrGreen assay (Table 6). For each performed RT-PCR reaction, the specificity of the assay was evaluated with dissociation curve software (Applied Biosystems), as well as by assessment of the size of the product using either gel electrophoresis or Agilent Bioanalyzer.
In a first step, the induction of the mRNA levels of 9 candidate genes (Table 5 and FIG. 10) was verified with quantitative PCR. […] As an internal control, the house-keeping gene glycernine-aldehyde-phosphate-dehydrogenase (GAPDH) was also analyzed.

AH-Receptor = assay: Affymetrix GeneChip liver expression, AH-R; assay type: in vivo, Wistar rats; details: rat liver, 24 H, control = 1.0
Experimental: Male Wistar rats (generally 5 animals/dose-group) were purchased from BRL (Füllingsdorf, Switzerland) and housed individually. Treated animals were dosed either orally, intraperitoneally, or intravenously with several doses of test compounds (Table 1). […] Control animals received the same volume of vehicle as placebo. Necropsy was performed 6 or 24 hours after a single administration and liver samples from the left medial lobe were placed immediately in RNALater (Ambion, Tex., USA) for RNA extraction and gene expression analysis. Samples in RNALater were stored at −20° C. until further processing.
For RNA isolation from liver tissue, a portion of tissue of approximately 100 mg was transferred to a tube containing 1.2 ml RNAzol. […] Total RNA was isolated according to the manufacturer's instruction and quantified by measuring the optical density at 280 nm. The quality of RNA was assessed with gel electrophoresis. […]
After hybridization and scanning, the expression level of each gene was calculated by subtracting the fluorescence intensity of the mismatch probes from the match signal (=average difference) using the [sequence] […] Gene expression data were further analyzed with an in-house-developed data analysis tool (RACE-A, Hoffmann-La Roche, Basel, Switzerland). […] Analyzed data were stored in a toxicogenomics database (RACE-R, Hoffmann-La Roche, Basel, Switzerland). […]

## O=C(O)CCCCCCNC1c2ccccc2CCc2ccccc21 [amineptine]
[1]
  SVM classification of compound class from liver expression profiles: steatotic compound

## CN(C)CCCN1c2ccccc2Sc2ccc(Cl)cc21 [Chlorpromazine]
liver
  treated patients who develop jaundice: Up to 1%

## Clc1ccccc1Cl [1,2-dichlorobenzene]
GADD-45
  induction of GADD-45 (RT-PCR): induction
PEG-3
  induction of PEG-3 (RT-PCR): induction
GADD-153
  induction of GADD-153 (RT-PCR): induction
[1]
  SVM classification of compound class from liver expression profiles: direct acting compound

## CC(=N)S [Thioacetamide]
GADD-45
  induction of GADD-45 (RT-PCR): induction
PEG-3
  induction of PEG-3 (RT-PCR): induction
GADD-153
  induction of GADD-153 (RT-PCR): induction

## Cc1ccc(C(=O)c2cc(O)c(O)c([N+](=O)[O-])c2)cc1 [Tolcapone]
EGR1; high dose 300 mg/kg
  induction of EGR1: slight induction

## Nc1ccc(S(=O)(=O)c2cc(Br)nc(N3CCCC3)c2)cc1 [Ro66-0074, 4-(2-Bromo-6-pyrrolidin-1-yl-pyridine-4-sulfonyl)-phenylamine]
[2]
  expression levels of selected marker genes (RT-PCR, FIG. 10): slight induction
AH-Receptor
  AH-R Affymetrix: 1.0

## Nc1c2c(nc3ccccc13)CCCC2 [Tacrine]
liver; Alzheimer's disease patients
  incidence of hepatotoxicity in treated patients: 40-50%

## O=[N+]([O-])c1ccc(O)c([N+](=O)[O-])c1 [dinitrophenol, Dinitrophenol]
EGR1; 10 and 30 mg/kg
  induction of EGR1: slight induction

## NN [Hydrazine]
GADD-45
  induction of GADD-45 (RT-PCR): induction
PEG-3
  induction of PEG-3 (RT-PCR): induction
GADD-153
  induction of GADD-153 (RT-PCR): induction
